Test results: PMC8940841, “A metabolically stable PET tracer for imaging synaptic vesicle protein 2A: synthesis and preclinical characterization of [^18F]SDM-16” (European Journal of Nuclear Medicine and Molecular Imaging, 2021)
Where two headings read alike, the source gives them in different places.

Key:
[1] = Measurement of lipophilicity (octanol / PBS pH 7.4); assay type: physicochemical; conditions: for logP: octanol/PBS pH 7.4
Protocol: The logP of [^18F]SDM-16 was determined by a method modified from previously published procedures. Briefly, an aliquot of […] (10 µCi) of the radioligand was added to a 2-mL microtube containing 0.8 mL of octanol and 0.8 mL of 1 × phosphate buffered saline (1 × PBS, pH 7.4). The mixture was vortexed for 30 s and then centrifuged at 2000 g for 2 min. A subsample of the octanol (0.1 mL) and 1 × PBS (0.5 mL) layers was evaluated with a gamma counter. The major portion of the octanol layer (0.5 mL) was diluted with another 0.3 mL of octanol, mixed with a fresh portion of 0.8 mL of PBS, vortexed, centrifuged, and analyzed as described above. This process was repeated until consistent log P values were obtained, with five consecutive equilibration procedures being performed for each logP measurement. Four separate measurements were performed for [^18F]SDM-16 on different days.

SV2A [2] = assay: Brain PET imaging with 1TC kinetic modeling; conditions: for VT (baseline): 1TC
Protocol: (§2) A total of 10 PET imaging experiments with [^18F]SDM-16 were performed in rhesus monkeys (Macaca mulatta) according to a protocol approved by the Yale University Institutional Animal Care and Use Committee (IACUC). Four monkeys were studied. […] Body temperature was maintained by a water-jacket heating pad. The animal was attached to a physiological monitor, and vital signs (heart rate, blood pressure, respirations, SPO2, EKG, ETCO2, and body temperature) were continuously monitored. A venous line was inserted in one limb for administration of radiotracer, displacement, and blocking drugs. A catheter was placed in the femoral artery in the other limb for blood sampling. Dynamic PET brain scans were performed on a Focus 220 system (Siemens Medical Solutions, Knoxville, TN, USA) with a reconstructed image resolution of approximately 1.5 mm. After a 9-min transmission scan, the radioligand was injected i.v. over 3 min. by an infusion pump. Dynamic PET scans were performed for 3 h (baseline and blocking scans) or 4 h (displacement scan).
(§3) PET images were reconstructed with built-in corrections for attenuation, normalization, scatter, randoms, and deadtime. PET brain images were registered to the animal’s MR image, which was subsequently registered to a brain atlas to define the regions of interest. Dynamic images were reconstructed using a Fourier rebinning and filtered back projection algorithm. A rhesus monkey brain atlas was used for generation of regions of interest (ROIs) and time − activity curves (TACs) for the following ROIs: amygdala, brain stem, caudate nucleus, centrum semiovale (CS), cerebellum, cingulate cortex, frontal cortex, globus pallidus, hippocampus, insula, nucleus accumbens, occipital cortex, pons, putamen, substantia nigra, temporal cortex, and thalamus.
(§4) Volume of distribution (VT, mL·cm^−3) values and the first-order kinetic rate constants of tracer (K1) were derived through 1-tissue (1T) compartment kinetic modeling with the metabolite-corrected arterial plasma input function, which was calculated as the product of the fitted total plasma curve and the parent radiotracer fraction curve. Nondisplaceable volume of distribution (VND) and SV2A occupancy by LEV was calculated using the Lassen plot [32]. Nondisplaceable binding potential (BPND) values were calculated from VT values using CS as reference region, or the VND derived from the blocking study, i.e., BPND = (VT, ROI − VT, CS)/ VT, CS or BPND = (VT/VND) -1.

[3] = Plasma radiometabolite analysis during PET scans; assay type: in vivo, rhesus monkeys; conditions: 30 min p.i.
Protocol: Arterial blood samples were collected during the PET scans to measure the radioactivity in plasma for generation of the metabolite-corrected arterial plasma input function. Plasma radiometabolite analysis was performed using the column-switching method, following a published protocol. Briefly, arterial blood samples were collected at 3-, 8-, 15-, 30-, 60-, 90-, 120-, and 180-min post-injection (p. i.), treated with urea (8 M), filtered, and injected onto a self-packed short column (4.6 × 19 mm) eluting with 1% MeCN in water at a flow rate of 2 mL/min. The sample was then back flushed onto a Gemini-NX column (5 μm, 4.6 mm × 250 mm) eluting with 40% MeCN/60% 0.1 M ammonium formate (pH 6.4) at a flow rate of 1.2 mL/min. The eluent was fraction-collected using an automated spectrum chromatography CF-1 fraction collector. Activity in the whole blood, plasma, filtrated plasma-urea mix, filters, and HPLC fractions were counted with automatic gamma well-counter (Wizard 2, PerkinElmer). The sample recovery rate, extraction efficiency, and HPLC fraction recovery were monitored. The unmetabolized [^18F]SDM-16 parent fraction was determined as the ratio of the sum of radioactivity in fractions containing the parent compound to the total amount of radioactivity collected and fitted with inverted Gamma4 approaches.
[^18F]SDM-16 had higher metabolite-corrected plasma SUV than the other SV2A radiotracers, indicating slower plasma clearance and higher metabolic stability (Fig. 2a). Whole-blood and plasma-input functions were highly consistent between the two animals, with a stable plasma to whole-blood ratio of 0.93 ± 0.13 over the entire 180-min acquisition period (Fig. S1).

[4] = Plasma free fraction (fp) by ultrafiltration; assay type: in vitro ADME, rhesus monkey; conditions: monkey, plasma (separated from spiked whole blood)
Protocol: The unbound fraction of [^18F]SDM-16 in plasma (fp) of rhesus monkey was measured in triplicate using the ultrafiltration method. Briefly, [^18F]SDM-16 solution was added to 3 mL of whole blood. After incubation at ambient temperature for 5 min, the blood sample was centrifuged at 3900 rpm for 5 min. A sample of the supernatant plasma (0.3 mL) was loaded onto the reservoir of a Centrifree® Ultrafiltration device (Merck Millipore Ltd. Tullagreen, Carrigtwohill, Co. Cork, IRELAND) in triplicate and centrifuged at 1228 g for 20 min. The fp value was calculated as the ratio of radioactivity in the filtrate to that in the plasma.

[5] = Free base fraction in plasma by modified Henderson-Hasselbalch equation (Eq. 1); conditions: Eq. 1, plasma pH 7.4
SV2A [6] = biological target: T1, SV2A (Macaca mulatta, UniProt H9EQH8); assay: LEV blocking and displacement PET scans, Lassen plot; assay type: in vivo, rhesus monkeys (Macaca mulatta); design: from tissue; host or cells: brain of living rhesus monkeys (in vivo PET); conditions: LEV 30 mg/kg i.v., Lassen plot with [^18F]SDM-16
T1 sequence (H9EQH8 1-742): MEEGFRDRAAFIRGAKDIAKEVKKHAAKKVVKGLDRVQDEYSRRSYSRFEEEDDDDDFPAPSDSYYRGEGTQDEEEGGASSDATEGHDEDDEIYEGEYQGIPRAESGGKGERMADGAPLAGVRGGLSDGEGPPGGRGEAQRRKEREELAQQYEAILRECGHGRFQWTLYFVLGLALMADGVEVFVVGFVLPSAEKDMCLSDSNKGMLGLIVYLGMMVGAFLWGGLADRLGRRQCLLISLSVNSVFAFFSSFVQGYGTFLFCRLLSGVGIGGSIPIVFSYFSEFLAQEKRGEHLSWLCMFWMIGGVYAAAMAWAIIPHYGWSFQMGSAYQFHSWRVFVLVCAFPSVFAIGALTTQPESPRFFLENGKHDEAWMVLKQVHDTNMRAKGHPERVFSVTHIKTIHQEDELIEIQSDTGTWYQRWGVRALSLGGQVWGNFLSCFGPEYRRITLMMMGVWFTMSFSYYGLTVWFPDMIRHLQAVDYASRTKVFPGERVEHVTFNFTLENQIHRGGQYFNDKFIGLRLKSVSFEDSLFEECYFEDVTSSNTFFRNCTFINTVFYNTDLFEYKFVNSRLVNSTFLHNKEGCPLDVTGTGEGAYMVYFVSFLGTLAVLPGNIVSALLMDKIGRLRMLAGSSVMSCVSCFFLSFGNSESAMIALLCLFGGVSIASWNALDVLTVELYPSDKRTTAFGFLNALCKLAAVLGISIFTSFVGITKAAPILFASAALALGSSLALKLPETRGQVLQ
Source text: (§1) Four monkeys were studied.
To examine the in vivo binding specificity, SV2A occupancy, and the extent of nonspecific binding in the monkey brain, we performed the Lassen plot analysis using data from the two baseline scans and one blocking scan in the same monkey.

[7] = Adverse event observation during PET imaging; assay type: in vivo, rhesus monkeys; conditions: tracer at microdose 0.646–0.926 µg; LEV i.v. 30 mg/kg
Protocol: as §1
Adverse event was also not observed following LEV (i.v., 30 mg/kg) administration, including the displacement and blocking scan.

human SV2A [8] = biological target: T2, human SV2A (Homo sapiens, UniProt Q7L0J3); design: Duplicate samples of human frontal cortex gray matter were homogenized in PBS buffer; from tissue; host or cells: human frontal cortex gray matter homogenate; conditions: other SV2A ligands, cited from earlier work
T2 sequence (Q7L0J3 whole entry): as the sequence (H9EQH8 1-742) above, with S64G, V572I counted along it

human SV2A [9] = biological target: T2, human SV2A; assay: biochemical; conditions: [^3H]UCB-J, human frontal cortex homogenate
Protocol: Competition binding assays were performed twice independently using separate assay materials, with 4 technical replicates from each independent assay. […] Duplicate samples of human frontal cortex gray matter were homogenized in PBS buffer (10 mg/mL) for storage at − 80 °C and were diluted to a stock concentration of 4 mg/mL in PBS on the day of the assays. […] Working stocks of brain homogenate (100 µL; final concentration of 2 mg/mL), blocking ligands (20 µL), and radioligand (80 µL; final concentration 2.5 nM) were combined in quadruplicate wells of 96-well plates, sealed, and incubated at room temperature for 90 min on an orbital shaker set to 250 RPM. Reaction plates were filtered, rapidly washed with cold PBS, and dried. Forty microliters of Microscint-20 scintillation cocktail (Perkin-Elmer) was added to each well, and the plate was counted using a Microbeta2 plate reader (Perkin-Elmer). GraphPad Prism was used for curve fitting using the one-site Ki model.

[10] = Brain PET imaging with 1TC kinetic modeling; conditions: rhesus monkey, brain tissue, intravenous
Protocol: as §2, §3, §4

SV2A [11] = conditions: 1TC, cited from earlier work
SV2A [12] = biological target: T1, SV2A; conditions: previously determined; cited from earlier work

[11CH3]n1cncc1CN1C[C@@H](c2cc(F)cc(F)c2)CC1=O [[^11C]UCB-A]
logD ([1]; octanol / 1x PBS, pH 7.4): 1.1
logP [1]: 1.1
K1 (SV2A [2]; Amygdala): 0.11 ± 0.01 mL/cm^3 per min
VT (baseline) (SV2A [2]; Amygdala): 15.6 ± 8.2 mL/cm^3
K1 (SV2A [2]; Anterior cingulate): 0.15 ± 0.03 mL/cm^3 per min
K1 (SV2A [2]; Brainstem): 0.15 ± 0.03 mL/cm^3 per min
VT (baseline) (SV2A [2]; Brainstem): 21.0 ± 4.9 mL/cm^3
K1 (SV2A [2]; Caudate): 0.13 ± 0.02 mL/cm^3 per min
K1 (SV2A [2]; Cerebellum): 0.17 ± 0.03 mL/cm^3 per min
K1 (SV2A [2]; Cingulate cortex): 0.17 ± 0.034 mL/cm^3 per min
K1 (SV2A [2]; Frontal cortex): 0.15 ± 0.03 mL/cm^3 per min
VT (baseline) (SV2A [2]; Frontal cortex): 49.0 ± 18.2 mL/cm^3
K1 (SV2A [2]; Globus pallidus): 0.10 ± 0.01 mL/cm^3 per min
K1 (SV2A [2]; Hippocampus): 0.12 ± 0.02 mL/cm^3 per min
VT (baseline) (SV2A [2]; Hippocampus): 31.4 ± 16.6 mL/cm^3
K1 (SV2A [2]; Insular cortex): 0.15 ± 0.01 mL/cm^3 per min
VT (baseline) (SV2A [2]; Insular cortex): 57.8 ± 26.9 mL/cm^3
K1 (SV2A [2]; Mean ± SD over brain regions): 0.14 ± 0.03 mL/cm^3 per min
K1 (SV2A [2]; Nucleus accumbens): 0.13 ± 0.02 mL/cm^3 per min
VT (baseline) (SV2A [2]; Nucleus accumbens): 34.1 ± 4.8 mL/cm^3
K1 (SV2A [2]; Occipital cortex): 0.19 ± 0.03 mL/cm^3 per min
VT (baseline) (SV2A [2]; Occipital cortex): 47.0 ± 16.6 mL/cm^3
K1 (SV2A [2]; Putamen): 0.17 ± 0.03 mL/cm^3 per min
K1 (SV2A [2]; Temporal cortex): 0.14 ± 0.02 mL/cm^3 per min
VT (baseline) (SV2A [2]; Temporal cortex): 51.4 ± 26.2 mL/cm^3
K1 (SV2A [2]; Thalamus): 0.14 ± 0.03 mL/cm^3 per min
SUV (brain tracer uptake) (SV2A [2]; baseline scan, end of scan, frontal cortex and putamen): about 4
parent fraction in plasma [3]: 70 ± 7%
fraction unbound at 5 min [4]: 0.75
fraction present in plasma as free base [5]: 49%

CC[C@@H](C(N)=O)N1CCCC1=O [Levetiracetam, levetiracetam, reference compound]
SV2A occupancy (SV2A [6]): 79%
adverse events [7]: not observed
Ki (human SV2A [8]): 2100 nM

Cc1nccn1CN1C[C@H](c2cc(F)cc(F)c2)CC1=O [(S)-SDM-16]
Ki (human SV2A [9]): 25.5 nM

[11CH3]c1cnccc1CN1C[C@@H](c2cc(F)c(F)c(F)c2)CC1=O [[^11C]UCB-J]
logP [1]: 2.46
fraction unbound [10]: 0.073
BPND, VND method (SV2A [2]; Amygdala): 2.77 ± 0.06
BPND, VT(CS) method (SV2A [2]; Amygdala): 0.85 ± 0.34
K1 (SV2A [2]; Amygdala): 0.48 ± 0.14 mL/cm^3 per min
BPND, VND method (SV2A [2]; Anterior cingulate): 6.84 ± 0.18
BPND, VT(CS) method (SV2A [2]; Anterior cingulate): 2.70 ± 0.74
K1 (SV2A [2]; Anterior cingulate): 0.73 ± 0.20 mL/cm^3 per min
BPND, VND method (SV2A [2]; Brainstem): 2.61 ± 0.44
BPND, VT(CS) method (SV2A [2]; Brainstem): 0.76 ± 0.21
K1 (SV2A [2]; Brainstem): 0.89 ± 0.17 mL/cm^3 per min
BPND, VND method (SV2A [2]; Caudate): 5.78 ± 0.43
BPND, VT(CS) method (SV2A [2]; Caudate): 2.40 ± 0.72
K1 (SV2A [2]; Caudate): 0.75 ± 0.12 mL/cm^3 per min
BPND, VND method (SV2A [2]; Cerebellum): 4.43 ± 0.83
BPND, VT(CS) method (SV2A [2]; Cerebellum): 1.95 ± 0.36
K1 (SV2A [2]; Cerebellum): 0.81 ± 0.16 mL/cm^3 per min
BPND, VND method (SV2A [2]; Cingulate cortex): 7.37 ± 1.18
BPND, VT(CS) method (SV2A [2]; Cingulate cortex): 3.17 ± 0.84
BPND, VND method (SV2A [2]; Frontal cortex): 7.28 ± 1.00
BPND, VT(CS) method (SV2A [2]; Frontal cortex): 3.17 ± 0.84
K1 (SV2A [2]; Frontal cortex): 0.66 ± 0.16 mL/cm^3 per min
BPND, VND method (SV2A [2]; Globus pallidus): 3.31 ± 0.38
BPND, VT(CS) method (SV2A [2]; Globus pallidus): 1.10 ± 0.28
K1 (SV2A [2]; Globus pallidus): 0.65 ± 0.11 mL/cm^3 per min
in vivo Kd ratio, Kd(tracer)/Kd([^18F]SDM-16) (SV2A [2]; Guo plot of baseline VT): 0.38
BPND, VND method (SV2A [2]; Hippocampus): 4.47 ± 0.14
BPND, VT(CS) method (SV2A [2]; Hippocampus): 1.59 ± 0.39
K1 (SV2A [2]; Hippocampus): 0.61 ± 0.12 mL/cm^3 per min
BPND, VND method (SV2A [2]; Insular cortex): 7.24 ± 0.73
BPND, VT(CS) method (SV2A [2]; Insular cortex): 3.12 ± 0.81
K1 (SV2A [2]; Insular cortex): 0.75 ± 0.17 mL/cm^3 per min
K1 (SV2A [2]; Mean ± SD over brain regions): 0.72 ± 0.17 mL/cm^3 per min
BPND, VND method (SV2A [2]; Nucleus accumbens): 7.16 ± 1.13
BPND, VT(CS) method (SV2A [2]; Nucleus accumbens): 3.12 ± 0.81
K1 (SV2A [2]; Nucleus accumbens): 0.77 ± 0.17 mL/cm^3 per min
BPND, VND method (SV2A [2]; Occipital cortex): 7.01 ± 0.88
BPND, VT(CS) method (SV2A [2]; Occipital cortex): 2.97 ± 0.65
K1 (SV2A [2]; Occipital cortex): 0.81 ± 0.21 mL/cm^3 per min
BPND, VND method (SV2A [2]; Putamen): 6.00 ± 0.24
BPND, VT(CS) method (SV2A [2]; Putamen): 2.42 ± 0.63
K1 (SV2A [2]; Putamen): 1.03 ± 0.19 mL/cm^3 per min
BPND, VND method (SV2A [2]; Temporal cortex): 6.57 ± 0.89
BPND, VT(CS) method (SV2A [2]; Temporal cortex): 2.79 ± 0.61
K1 (SV2A [2]; Temporal cortex): 0.66 ± 0.14 mL/cm^3 per min
BPND, VND method (SV2A [2]; Thalamus): 5.21 ± 0.57
BPND, VT(CS) method (SV2A [2]; Thalamus): 2.03 ± 0.62
K1 (SV2A [2]; Thalamus): 0.72 ± 0.24 mL/cm^3 per min
parent fraction in plasma [3]: 40 ± 6%
fraction unbound at 5 min [4]: 0.46
VT (baseline) (SV2A [11]; Amygdala): 24.4 ± 2.0 mL/cm^3
VT (baseline) (SV2A [11]; Brainstem): 23.5 ± 2.8 mL/cm^3
VT (baseline) (SV2A [11]; Caudate): 44.8 ± 4.6 mL/cm^3
VT (baseline) (SV2A [11]; Centrum semiovale): 13.6 ± 2.9 mL/cm^3
VT (baseline) (SV2A [11]; Cerebellum): 39.5 ± 5.8 mL/cm^3
VT (baseline) (SV2A [11]; Cingulate cortex): 55.6 ± 10.0 mL/cm^3
VT (baseline) (SV2A [11]; Frontal cortex): 55.4 ± 8.2 mL/cm^3
VT (baseline) (SV2A [11]; Globus pallidus): 27.9 ± 3.0 mL/cm^3
VT (baseline) (SV2A [11]; Hippocampus): 34.4 ± 2.8 mL/cm^3
VT (baseline) (SV2A [11]; Insular cortex): 54.6 ± 6.7 mL/cm^3
VT (baseline) (SV2A [11]; Nucleus accumbens): 53.9 ± 9.2 mL/cm^3
VT (baseline) (SV2A [11]; Occipital cortex): 52.9 ± 7.0 mL/cm^3
VT (baseline) (SV2A [11]; Putamen): 45.2 ± 3.0 mL/cm^3
VT (baseline) (SV2A [11]; Temporal cortex): 50.4 ± 6.9 mL/cm^3
VT (baseline) (SV2A [11]; Thalamus): 40.3 ± 6.4 mL/cm^3
VND (SV2A [12]): 6.27 mL/cm^3

Cc1cnccc1CN1C[C@@H](c2cc(F)c(F)c(F)c2)CC1=O [UCB-J]
Ki (human SV2A [8]; read-out: Ki): 2.6 nM
